Assay results published in patent US20120225909A1, “INDAZOLE ANALOG” (priority 2009, published 2012).

How the values were obtained:
Format in all cases: cell-based
[1] = target: T1, human α1A-adrenergic receptor (Homo sapiens, UniProt P35348); test: Test Case 4-A: human α1A-adrenergic receptor agonist activity (HEK293, Ca flux, Fura-2); design: expressed in transfected cells; host or cells: HEK293 cells, pcDNA3.1; details: for Emax: HEK293, read-out: α1A receptor I.A.; for α1A receptor I.A. / EC50: Test Case 4-A, Table 4; for α1A receptor I.A.: maximum response of norepinephrine = 100%; for EC50: HEK293 cells, Ca flux
T1 sequence (P35348 1-466): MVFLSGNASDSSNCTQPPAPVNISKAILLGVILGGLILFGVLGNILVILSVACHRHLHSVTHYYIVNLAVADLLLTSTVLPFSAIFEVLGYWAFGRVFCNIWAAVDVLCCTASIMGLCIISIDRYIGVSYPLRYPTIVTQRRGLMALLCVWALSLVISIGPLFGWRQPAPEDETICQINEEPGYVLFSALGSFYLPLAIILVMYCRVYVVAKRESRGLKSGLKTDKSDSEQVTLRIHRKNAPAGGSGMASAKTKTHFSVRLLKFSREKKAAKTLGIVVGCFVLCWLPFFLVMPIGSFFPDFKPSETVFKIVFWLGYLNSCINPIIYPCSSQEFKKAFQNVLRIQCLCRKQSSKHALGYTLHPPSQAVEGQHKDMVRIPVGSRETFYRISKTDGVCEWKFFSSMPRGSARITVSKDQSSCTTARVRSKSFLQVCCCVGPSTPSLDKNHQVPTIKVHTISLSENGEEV
Description: (§1) Measurement of Human α1A-Adrenergic Receptor Agonist Activity
The human α1A-adrenergic receptor agonist activity is measured using HEK293 cells transfected by a human α1A gene inserted in pcDNA3.1 (Invitrogen). […] After loading for 30 minutes in a CO2 incubator, the excess Fura-2AM is removed by washing twice with assay buffer. After preparing the centrifuged cells to make 5×10^6 cells/mL by assay buffer, 80 μL/well is dispensed into 96-well UV plates (made by Corning) to make cell plates. Sample plates with the test compound diluted 10-fold by assay buffer from 10^−5 to 10^−12 M and cell plates are set in an FDSS4000 (made by Hamamatsu Photonics). After preincubating for 180 seconds, measurement of fluorescence intensity (excitation wavelength 340 nm, 380 nm, measurement wavelength 500 nm) is begun at 2-second intervals. After approximately 30 seconds of measurement, 20 μL of test sample from a sample plate is added to the cell plate, and measurement is continued for another 270 seconds. The Ca flux caused by the test compound is calculated taking the difference in the maximum value of the fluorescence intensity ratio at 340 nm and 380 nm after adding the test compound and the fluorescence intensity ratio before adding the test compound as the peak height.

[2] = target: T1, human α1A-adrenergic receptor; test: Test Case 4-B: human α1A-adrenergic receptor agonist activity (Cerep cellular functional GPCR, alpha 1A); design: expressed in transfected cells; details: concentration 10 μM; for α1 receptor % of Control Agonist Response, Control; Epinephrine: epinephrine = 100%
Text: as §1
The human α1A-adrenergic receptor agonist activity] can be measured by […] Functional GPCR·Gs, alpha 1A (Ref. 722-36a) listed on p. 52 of the Cerep 2008 CATALOG IN VITRO PHARMACOLOGY & ADME-TOX.

[3] = target: T2, human β3-adrenergic receptor (Homo sapiens, UniProt P13945); test: Test Case 1-B: human β3-adrenergic receptor agonist activity (cAMP-Screen, 96-well); details: for EC50 / β3 receptor I.A.: Test Case 1-B; for EC50: CHO cells, cAMP; for β3 receptor I.A.: maximum response of isoproterenol = 100%; for Emax: 0.5 h, read-out: β3 receptor I.A.
T2 construct: A full-length human β3 gene is obtained from a human genomic library (made by Clontech) using this as the probe; expressed in transfected cells; host or cells: CHO (Chinese hamster ovary) cells, pcDNA3
T2 sequence (P13945 whole entry): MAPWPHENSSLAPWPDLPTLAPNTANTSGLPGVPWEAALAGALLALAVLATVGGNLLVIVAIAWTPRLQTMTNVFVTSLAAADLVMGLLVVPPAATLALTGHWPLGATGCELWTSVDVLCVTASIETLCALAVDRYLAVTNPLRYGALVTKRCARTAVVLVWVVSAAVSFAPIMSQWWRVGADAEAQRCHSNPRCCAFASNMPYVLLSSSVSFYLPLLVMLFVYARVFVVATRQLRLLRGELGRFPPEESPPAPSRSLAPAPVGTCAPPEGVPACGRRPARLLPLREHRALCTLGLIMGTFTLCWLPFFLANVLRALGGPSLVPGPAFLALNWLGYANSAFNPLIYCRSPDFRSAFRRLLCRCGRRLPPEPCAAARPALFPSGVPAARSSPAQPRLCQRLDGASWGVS
Description: Measurement of Human β3-Adrenergic Receptor Agonist Activity
The human β3-adrenergic receptor agonist activity is measured using CHO (Chinese hamster ovary) cells transfected by a human β3 gene inserted in pcDNA3 (Invitrogen). […] A full-length human β3 gene is obtained from a human genomic library (made by Clontech) using this as the probe. These cells are cultured in Ham's F-12 medium containing 10% fetal calf serum and 400 μg/mL genectin (Invitrogen). These cells are sown in 96-well plates to make 2×10^4 cells/well. After culturing for approximately 20 hours, they are allowed to stand for 15 minutes in 80 μL of serum-free Ham's F-12 medium. After first dissolving the test compound by DMSO, it is serially diluted by Ham's F-12 containing 100 mmol/L HEPES and 1 mmol/L isobutylmethylxanthine, and 20 μL is added to the cells. After culturing for 30 minutes, the medium is removed, and 0.1 mL of the assay/lysis buffer contained in the cAMP-Screen kit (made by Applied Bioscience) is added and incubated for 30 minutes at 37° C. The cAMP in this cell lysate is assayed by the above cAMP-Screen kit.

Compound | Emax [1] [%] | α1A receptor I.A. [1] [%] | α1 receptor % of Control Agonist Response, Control; Norepinephrine ([2]; norepinephrine = 100%) [%] | EC50 [3] [nM] | Emax [3] [%] | EC50 [1] [nM] | α1 receptor % of Control Agonist Response, Control; Epinephrine [2] [%] | β3 receptor I.A. [3] [%]
NC[C@H](O)c1ccc(O)c(O)c1 [Norepinephrine, reference compound] | 100 | 100 | 100 |  |  |  | 116 | 
CNC[C@H](O)c1ccc(O)c(O)c1 [Epinephrine, epinephrine, reference compound] |  |  |  |  |  |  | 100 | 
O=S(=O)(Nc1cccc([C@@H](O)CNCCOc2ccc3c(OC(F)F)n[nH]c3c2)c1)c1ccccn1 [ex117, (R)-N-(3-(2-(2-(3-(difluoromethoxy)-indazol-6-yloxy)ethylamino)-1-hydroxyethyl)phenyl)pyridine-2-sulfonamide] |  | 0 |  |  |  |  |  | 54
CCc1n[nH]c2cc(OCCNC[C@H](O)c3cccc(NS(=O)(=O)c4cccc(Cl)c4)c3)ccc12 [ex119, (R)-3-chloro-N-(3-(2-(2-(3-ethylindazol-6-yloxy)-ethylamino)-1-hydroxyethyl)-phenyl) benzenesulfonamide] | 0 |  |  | 23 | 47 |  |  | 
Cc1n[nH]c2cc(OCCNC[C@H](O)c3cccc(NS(=O)(=O)c4ccc(N)cc4)c3)ccc12 [ex54, (R)-4-amino-N-(3-(1-hydroxy-2-(2-(3-methylindazol-6-yloxy)ethylamino)ethyl)phenyl) benzenesulfonamide] | 0 |  |  | 125 | 48 |  |  | 
COc1n[nH]c2cc(OCCNC[C@H](O)c3cccc(NS(=O)(=O)C4CCC4)c3)ccc12 [ex38, (R)-N-(3-(1-hydroxy-2-(2-(3-methoxyindazol-6-yloxy)-ethylamino)ethyl)phenyl)cyclo-butanesulfonamide] | 75 |  |  | 31 | 89 | 378 |  | 

More lines, main results first:

Emax [1] [%] | α1A receptor I.A. [1] [%] | α1 receptor % of Control Agonist Response, Control; Norepinephrine ([2]; norepinephrine = 100%) [%] | EC50 [3] [nM] | Emax [3] [%] | EC50 [1] [nM] | Compound | α1 receptor % of Control Agonist Response, Control; Epinephrine [2] [%] | β3 receptor I.A. [3] [%]
 | 0 |  | 14 |  |  | (R)-N-(3-(1-hydroxy- 2-(2-(3-iso- propylindazol-6-yloxy) ethylamino)ethyl) phenyl)cyclopro- panesulfonamide [ex228] |  | 47
9 |  |  | 10 | 73 |  | O=S(=O)(Nc1cccc([C@@H](O)CNCCOc2ccc3c(C4CCC4)n[nH]c3c2)c1)C1CCC1 [ex233, (R)-N-(3-(2-(2-(3- ?] |  | 
0 |  |  |  | 18 |  | Cc1n[nH]c2cc(OCCNC[C@H](O)c3cccc(NS(=O)(=O)c4cn(C)cn4)c3)ccc12 [ex50, (R)-N-(3-(1-hydroxy-2-(2-(3-methylindazol-6-yloxy)ethylamino)ethyl)phenyl)-1-methylimidazole-4-sulfonamide] |  | 
0 |  |  | 2.8 | 53 |  | CCc1n[nH]c2cc(OCCNC[C@H](O)c3cccc(NS(=O)(=O)c4cccnc4)c3)ccc12 [ex121, (R)-N-(3-(2-(2-(3-ethylindazol-6-yloxy)ethylamino)-1-hydroxyethyl)phenyl) pyridine-3-sulfonamide] |  | 
61 |  |  | 5.4 | 85 | 1280 | CCc1n[nH]c2cc(OCCNC[C@H](O)c3cccc(NS(=O)(=O)C4CCC4)c3)ccc12 [ex150] |  | 
0 |  |  | 0.91 | 59 |  | CCc1n[nH]c2cc(OCCNC[C@H](O)c3cccc(NS(=O)(=O)c4cccs4)c3)ccc12 [ex122, (R)-N-(3-(2-(2-(3-ethylindazol-6-yloxy)ethylamino)-1-hydroxyethyl)phenyl) thiophene-2-sulfonamide] |  | 
26 |  |  | 17 | 93 | 436 | O=S(=O)(Nc1cccc([C@@H](O)CNCCOc2ccc3c(Cl)n[nH]c3c2)c1)C1CCC1 [ex179, (R)-N-(3-(2-(2-(3-chloroindazol-6-yloxy)ethylamino)-1-hydroxyethyl)phenyl)-cyclobutanesul-fonamide] |  | 
